The record followed here is US20240368135A1 (VERTEX PHARMACEUTICALS INCORPORATED, priority 2021, published 2024).

human NaV 1.8, sequence (Q9Y5Y9 126-399 limits assumed): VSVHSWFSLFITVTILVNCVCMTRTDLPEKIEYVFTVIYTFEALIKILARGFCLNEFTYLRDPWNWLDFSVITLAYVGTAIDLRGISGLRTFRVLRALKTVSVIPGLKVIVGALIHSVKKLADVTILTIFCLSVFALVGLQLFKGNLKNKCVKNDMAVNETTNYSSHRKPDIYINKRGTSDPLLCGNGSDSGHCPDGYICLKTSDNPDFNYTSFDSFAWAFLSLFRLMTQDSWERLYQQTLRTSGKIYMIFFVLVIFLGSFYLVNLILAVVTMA
human NaV 1.8, sequence (Q9Y5Y9 660-890 limits assumed): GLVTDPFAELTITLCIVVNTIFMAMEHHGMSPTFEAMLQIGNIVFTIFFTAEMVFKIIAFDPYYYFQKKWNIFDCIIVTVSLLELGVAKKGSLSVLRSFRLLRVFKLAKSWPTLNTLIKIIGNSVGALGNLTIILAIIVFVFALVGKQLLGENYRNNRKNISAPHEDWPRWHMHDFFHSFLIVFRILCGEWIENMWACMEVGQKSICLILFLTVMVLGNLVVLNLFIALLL
human NaV 1.8, sequence (Q9Y5Y9 1148-1722 limits assumed): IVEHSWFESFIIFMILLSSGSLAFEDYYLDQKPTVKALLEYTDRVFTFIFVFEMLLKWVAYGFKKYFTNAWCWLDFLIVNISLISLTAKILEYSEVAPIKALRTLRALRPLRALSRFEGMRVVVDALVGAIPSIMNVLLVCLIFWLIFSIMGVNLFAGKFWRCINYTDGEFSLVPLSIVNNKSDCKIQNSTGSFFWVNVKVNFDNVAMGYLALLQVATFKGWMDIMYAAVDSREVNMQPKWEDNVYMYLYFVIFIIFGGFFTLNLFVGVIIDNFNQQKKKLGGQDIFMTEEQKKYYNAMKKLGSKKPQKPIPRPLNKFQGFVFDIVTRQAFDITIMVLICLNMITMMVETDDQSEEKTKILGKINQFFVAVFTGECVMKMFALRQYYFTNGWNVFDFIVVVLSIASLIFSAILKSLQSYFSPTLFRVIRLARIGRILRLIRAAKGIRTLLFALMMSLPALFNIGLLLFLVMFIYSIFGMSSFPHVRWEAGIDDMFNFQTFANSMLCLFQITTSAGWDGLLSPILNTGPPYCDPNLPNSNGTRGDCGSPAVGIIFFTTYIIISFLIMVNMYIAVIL

The target of the first assay is human NaV 1.8 (Homo sapiens, UniProt Q9Y5Y9). Briefly: E-VIPR assay detecting and measuring NaV inhibition properties. It counts as cell-based. The following applies: HEK cells expressing truncated human NaV 1.8; in the presence of human serum (compound numbers followed by *); read-out: IC50 in the E-VIPR Assay, performed in the presence of human serum. Summed up:
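HEK cells expressing truncated, fully active human NaV1.8, with KIR2.1 BacMam co-transduction, were loaded with CC2-DMPE/DiSBAC6(3) voltage-sensing dyes for 20 min at room temperature. Compounds were tested in 11-point 3-fold dilutions (300 nM top final), optionally with 25% human serum, under electrical stimulation with FRET read-out.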
As for `COc1c(C2C(C(=O)Nc3ccnc(C(O)C(C)O)c3)OC(C)(C(F)(F)F)C2C)ccc(F)c1C` (single isomer, unassigned) [Compound 148], the IC50 (usually the midpoint of a concentration-inhibition curve) is under 10 nM.
With `C[C@@H]1[C@H](c2ccc(F)c(F)c2OC(F)F)[C@@H](C(=O)Nc2cccnc2)O[C@]1(C)C(F)(F)F` (single isomer, unassigned) [Compound 66], the IC50 was at least 1000 nM.
Turning to `C[C@@H]1[C@H](c2ccc(F)c(F)c2OC(F)F)[C@@H](C(=O)Nc2ccc(=O)n(C)c2)O[C@]1(C)C(F)(F)F` (single isomer, unassigned) [Compound 67], the IC50 was at least 1000 nM.

Still in this assay, the particulars now being: HEK cells expressing truncated human NaV 1.8; no human serum; read-out: IC50 in the E-VIPR Assay.
Take `COc1c([C@H]2[C@H](C(=O)Nc3cn(S(C)(=O)=O)nc3C)O[C@@](C)(C(F)(F)F)[C@H]2C)ccc(F)c1F` [Compound 180, (2R,3S,4S,5R)-3-(3,4-difluoro-2-methoxyphenyl)-4,5-dimethyl-N-(3-methyl-1-(methylsulfonyl)-1H-pyrazol-4-yl)-5-(trifluoromethyl)tetrahydrofuran-2-carboxamide]: the IC50 was under 10 nM.
Same read-out and setting: the figure for `COc1c([C@H]2[C@H](C(=O)NC3(Cc4ccccc4)CC3)O[C@@](C)(C(F)(F)F)[C@H]2C)ccc(F)c1F` [Compound 291, (2R,3S,4S,5R)-N-(1-benzylcyclopropyl)-3-(3,4-difluoro-2-methoxyphenyl)-4,5-dimethyl-5-(trifluoromethyl)tetrahydrofuran-2-carboxamide] is at least 1000 nM; for `C[C@H]1[C@@H](c2ccc(F)c(F)c2O[C@H]2C[C@@H](O)C2)[C@H](C(=O)Nc2ccn(C)c(=O)c2)O[C@@]1(C)C(F)(F)F` [Compound 663, (2R,3S,4S,5R)-3-(3,4-difluoro-2-((1S,3R)-3-hydroxycyclobutoxy)phenyl)-4,5-dimethyl-N-(1-methyl-2-oxo-1,2-dihydropyridin-4-yl)-5-(trifluoromethyl)tetrahydrofuran-2-carboxamide] it is 10 to 100 nM; for `C[C@H]1[C@@H](c2ccc(F)c(F)c2OCCN2C[C@H]3COC[C@H]3C2)[C@H](C(=O)Nc2cc(C(N)=O)nn2C)O[C@@]1(C)C(F)(F)F` [Compound 597, 5-[[(2R,3S,4S,5R)-3-[2-[2-[(3aS,6aR)-1,3,3a,4,6,6a-hexahydrofuro[3,4-c]pyrrol-5-yl]ethoxy]-3,4-difluoro-phenyl]-4,5-dimethyl-5-(trifluoromethyl)tetrahydrofuran-2-carbonyl]amino]-1-methyl-pyrazole-3-carboxamide] it is 10 to 100 nM.
The same measure, in the same setting: the value for `COc1c([C@H]2[C@H](C(=O)Nc3ccnc(C[C@H](O)CO)c3)O[C@@](C)(C(F)(F)F)[C@H]2C)ccc(F)c1F` [Compound 333, (2R,3S,4S,5R)-3-(3,4-difluoro-2-methoxy-phenyl)-N-[2-[(2S)-2,3-dihydroxypropyl]-4-pyridyl]-4,5-dimethyl-5-(trifluoromethyl)tetrahydrofuran-2-carboxamide] was under 10 nM.
Still for that read-out and setting: the value for `COc1c([C@H]2[C@H](C(=O)Nc3ccnc(N4C[C@H]5CC[C@H](N5)C4=O)c3)O[C@@](C)(C(F)(F)F)[C@H]2C)ccc(F)c1F` (single isomer, unassigned) [Compound 493, rel-(2R*,3S*,4S*,5R*)-3-(3,4-difluoro-2-methoxyphenyl)-4,5-dimethyl-N-(2-((1S,5R)-2-oxo-3,8-diazabicyclo[3.2.1]octan-3-yl)pyridin-4-yl)-5-(trifluoromethyl)tetrahydrofuran-2-carboxamide] was 10 to 100 nM.
Take `COc1c([C@@H]2[C@@H](C(=O)Nc3ccnc(S(C)(=N)=O)c3)O[C@](C)(C(F)(F)F)[C@@H]2C)ccc(F)c1C` (relative stereo) [Compound 150, rel-(2S,3R,4R,5S)-3-(4-fluoro-2-methoxy-3-methylphenyl)-4,5-dimethyl-N-(2-(S-methylsulfonimidoyl)pyridin-4-yl)-5-(trifluoromethyl)tetrahydrofuran-2-carboxamide]: the IC50 fell in the range of 100 to 1000 nM.
On the same count and under the same terms, the value for `COc1c([C@H]2[C@H](C(=O)NC3CCN(C(C)=O)C3)O[C@@](C)(C(F)(F)F)[C@H]2C)ccc(F)c1F` (stereo partly drawn) [Compound 298, (2R,3S,4S,5R)-N-(1-acetylpyrrolidin-3-yl)-3-(3,4-difluoro-2-methoxyphenyl)-4,5-dimethyl-5-(trifluoromethyl)tetrahydrofuran-2-carboxamide] was at least 1000 nM.
On to `COc1c([C@H]2[C@H](C(=O)Nc3cc(C(C)(N)CO)ncc3F)O[C@@](C)(C(F)(F)F)[C@H]2C)ccc(F)c1F` (single isomer, unassigned) [Compound 360], for which the IC50 is under 10 nM.
Same read-out and setting: the value for `CNc1ccc(NC(=O)[C@@H]2O[C@@](C)(C(F)(F)F)[C@@H](C)[C@H]2c2ccc(F)c(F)c2OC)cn1` [Compound 524, (2R,3S,4S,5R)-3-(3,4-difluoro-2-methoxy-phenyl)-4,5-dimethyl-N-[6-(methylamino)-3-pyridyl]-5-(trifluoromethyl)tetrahydrofuran-2-carboxamide] was 10 to 100 nM; that for `CCOc1c(C2C(C(=O)Nc3cc(S(C)(=N)=O)c[n+](C)c3)OC(C)(C(F)(F)F)C2C)ccc(F)c1F` (stereo not drawn) [Compound 114, 3-(2-ethoxy-3,4-difluoro-phenyl)-4,5-dimethyl-N-[1-methyl-5-(methylsulfonimidoyl)pyridin-1-ium-3-yl]-5-(trifluoromethyl)tetrahydrofuran-2-carboxamide] was 100 to 1000 nM; that for `COc1c([C@H]2[C@H](C(=O)Nc3ccnc(N4C(=O)CN5CCC4CC5)c3)O[C@@](C)(C(F)(F)F)[C@H]2C)ccc(F)c1F` [Compound 468, (2R,3S,4S,5R)-3-(3,4-difluoro-2-methoxyphenyl)-4,5-dimethyl-N-(2-(3-oxo-1,4-diazabicyclo[3.2.2]nonan-4-yl)pyridin-4-yl)-5-(trifluoromethyl)tetrahydrofuran-2-carboxamide] was 10 to 100 nM.
Still for that read-out and setting: the value for `CNS(=O)(=O)c1cc(NC(=O)C2OC(C)(C(F)(F)F)C(C)C2c2ccc(F)c(F)c2OC)ccn1` (single isomer, unassigned) [Compound 456, 3-(3,4-difluoro-2-methoxy-phenyl)-4,5-dimethyl-N-[2-(methylsulfamoyl)-4-pyridyl]-5-(trifluoromethyl)tetrahydrofuran-2-carboxamide] was under 10 nM; that for `CNC(c1cc(NC(=O)[C@@H]2O[C@@](C)(C(F)(F)F)[C@@H](C)[C@H]2c2ccc(F)c(F)c2OC)ccn1)C(C)(C)OC` (single isomer, unassigned) [Compound 344, rel-(2R*,3S*,4S*,5R*)-3-(3,4-difluoro-2-methoxyphenyl)-N-(2-(2-methoxy-2-methyl-1-(methylamino)propyl)pyridin-4-yl)-4,5-dimethyl-5-(trifluoromethyl)-tetrahydrofuran-2-carboxamide] was under 10 nM.
The same measure, in the same setting: the value for `COc1c([C@H]2[C@H](C(=O)Nc3cc(C(O)CN4CCOCC4)ncc3F)O[C@@](C)(C(F)(F)F)[C@H]2C)ccc(F)c1F` (single isomer, unassigned) [Compound 371, rel-(2R*,3S*,4S*,5R*)-3-(3,4-difluoro-2-methoxyphenyl)-N-(5-fluoro-2-(1-hydroxy-2-morpholinoethyl)pyridin-4-yl)-4,5-dimethyl-5-(trifluoromethyl)tetrahydrofuran-2-carboxamide] was 10 to 100 nM; that for `COc1c([C@H]2[C@H](C(=O)Nc3cc(C[C@@H](O)CO)n(C)n3)O[C@@](C)(C(F)(F)F)[C@H]2C)ccc(F)c1F` [Compound 335, (2R,3S,4S,5R)-3-(3,4-difluoro-2-methoxy-phenyl)-N-[5-[(2R)-2,3-dihydroxypropyl]-1-methyl-pyrazol-3-yl]-4,5-dimethyl-5-(trifluoromethyl)tetrahydrofuran-2-carboxamide] was at least 1000 nM; that for `COc1c([C@H]2[C@H](C(=O)NC3CN(C)C3)O[C@@](C)(C(F)(F)F)[C@H]2C)ccc(F)c1F` [Compound 278, (2R,3S,4S,5R)-3-(3,4-difluoro-2-methoxyphenyl)-4,5-dimethyl-N-(1-methylazetidin-3-yl)-5-(trifluoromethyl)tetrahydrofuran-2-carboxamide] was at least 1000 nM.
For the compound `COc1c(C2C(C(=O)Nc3ccnc(C(O)CF)c3)OC(C)(C(F)(F)F)C2C)ccc(F)c1F` (single isomer, unassigned) [Compound 252, rel-(2R*,3S*,4S*,5R*)-3-(3,4-difluoro-2-methoxyphenyl)-N-(2-(2-fluoro-1-hydroxyethyl)pyridin-4-y1)-4,5-dimethyl-5-(trifluoromethyl)tetrahydrofuran-2-carboxamide], the IC50 was under 10 nM.
The same measure, in the same setting: the value for `COc1c([C@H]2[C@H](C(=O)Nc3ccc(C(N)=O)[n+]([O-])c3)O[C@@](C)(C(F)(F)F)[C@H]2C)ccc(F)c1F` [Compound 2, 2-carbamoyl-5-((2R,3S,4S,5R)-3-(3,4-difluoro-2-methoxyphenyl)-4,5-dimethyl-5-(trifluoromethyl)tetra hydrofuran-2-carboxamido)pyridine 1-oxide] was 10 to 100 nM; that for `COCc1cc(NC(=O)C2OC(C)(C(F)(F)F)C(C)C2c2ccc(F)c(F)c2OC2CC(O)C2)ccn1` [Compound 664, (2R,3S,4S,5R)-3-(3,4-difluoro-2-((1S,3R)-3-hydroxycyclobutoxy)phenyl)-N-(2-(methoxymethyl)pyridin-4-yl)-4,5-dimethyl-5-(trifluoromethyl)tetrahydrofuran-2-carboxamide] was 10 to 100 nM; that for `COc1c([C@H]2[C@H](C(=O)Nc3cc(C(O)CO)ncc3C)O[C@@](C)(C(F)(F)F)[C@H]2C)ccc(F)c1F` (single isomer, unassigned) [Compound 205, rel-(2R*,3S*,4S*,5R*)-3-(3,4-difluoro-2-methoxyphenyl)-N-(2-(1,2-dihydroxyethyl)-5-methylpyridin-4-yl)-4,5-dimethyl-5-(trifluoromethyl)tetrahydrofuran-2-carboxamide] was under 10 nM.
